{"source": "patent US20230391725A1", "about": "“MODULATORS OF THE INTEGRATED STRESS RESPONSE PATHWAY” (Evotec International GmbH, priority 2020, published 2023)", "note": "Counter-ions that a name gives are not always drawn.", "data": [{"test_system": "ATF4", "assay": "HEK-ATF4 High Content Imaging assay (prevention of Tunicamycin induced ISR)", "type": "cell-based", "details": "Homo sapiens, Wild-type HEK293 cells, 6 h incubation, ATF4 signal ratio between nucleus and cytoplasm", "experimental": "Example compounds were tested in the HEK-ATF4 High Content Imaging assay to assess their pharmacological potency to prevent Tunicamycin induced ISR. Wild-type HEK293 cells were plated in 384-well imaging assay plates at a density of 12,000 cells per well in growth medium (containing DMEM/F12, 10% FBS, 2 mM L-Glutamine, 100 U/mL Penicillin—100 μg/mL Streptomycin) and incubated at 37° C., 5% CO2. 24 h later, the medium was changed to 50 μL assay medium per well (DMEM/F12, 0.3% FBS, 2mM L-Glutamine, 100 U/mL Penicillin—100 μg/mL Streptomycin). Example compounds were serially diluted in DMSO, spotted into intermediate plates and prediluted with assay medium containing 3.3 […] Tunicamycin to give an 11-fold excess of final assay concentration. In addition to the example compound testing area, the plates also contained multiples of control wells for assay normalization purposes, wells containing Tunicamycin but no example compounds (High control), as well as wells containing neither example compound nor Tunicamycin (Low control). The assay was started by transferring 5 μL from the intermediate plate into the assay plates, followed by incubation for 6 h at 37° C., 5% CO2. Subsequently, cells were fixed (4% PFA in PBS, 20 min at r.t.) and submitted to indirect ATF4 immunofluorescence staining (primary antibody rabbit anti ATF4, clone D4B8, Cell Signaling Technologies; secondary antibody Alexa Fluor 488 goat anti-rabbit IgG (H+L), Thermofisher Scientific). Nuclei were stained using Hoechst dye (Thermofisher Scientific), and plates were imaged on an Opera Phenix High Content imaging platform equipped with 405 nm and 488 nm excitation. Finally, images were analyzed using script based algorithms. The main readout HEK-ATF4 monitored the ATF4 signal ratio between nucleus and cytoplasm. Tunicamycin induced an increase in the overall ATF4 ratio signal, which was prevented by ISR modulating example compounds. In addition, HEK-CellCount readout was derived from counting the number of stained nuclei corresponding to healthy cells. This readout served as an internal toxicity control.", "units": {"IC50": "nM"}, "values": [{"compound": "O=C(COc1ccc(Cl)c(F)c1)N[C@H]1CC[C@H](C(=O)N[C@@H]2CC[C@@H](OC(F)(F)F)C2)NC1", "note": "(single isomer, unassigned) [Example 54]", "IC50": "500 to 2000"}, {"compound": "O=C(COc1ccc(Cl)c(F)c1)N[C@H]1CC[C@H](C(=O)Nc2cccc(C(F)F)c2)NC1", "note": "[Example 24, (2R,5S)-5-[2-(4-chloro-3-fluorophenoxy)acetamido]-N-[3-(difluoromethyl)phenyl]piperidine-2-carboxamide]", "IC50": "1 to 500"}, {"compound": "O=C(COc1ccc(Cl)c(F)c1)N[C@H]1CC[C@H](C(=O)NC[C@H]2CC[C@@H](C(F)(F)F)CC2)NC1", "note": "[Example 19, (2R,5S)-5-[2-(4-chloro-3-fluorophenoxy)acetamido]-N-{[(1s,4s)-4-(trifluoromethyl)cyclohexyl]methyl}piperidine-2-carboxamide]", "IC50": "2000 to 15000"}, {"compound": "O=C(COc1ccc(Cl)c(F)c1)N[C@H]1CC[C@H](C(=O)NCc2cc(C(F)(F)F)ccn2)NC1", "note": "[Example 44, (2R,5S)-5-[2-(4-chloro-3-fluorophenoxy)acetamido]-N-{[4-(trifluoromethyl)pyridin-2-yl]methyl}piperidine-2-carboxamide]", "IC50": "2000 to 15000"}, {"compound": "O=C(COc1ccc(Cl)c(F)c1)N[C@H]1CC[C@H](C(=O)Nc2ccnc(C(F)(F)F)n2)NC1", "note": "[Example 49, (2R,5S)-5-[2-(4-chloro-3-fluorophenoxy)acetamido]-N-[2-(trifluoromethyl)pyrimidin-4-yl]piperidine-2-carboxamide]", "IC50": "1 to 500"}, {"compound": "O=C(COc1ccc(Cl)c(F)c1)N[C@H]1CC[C@H](C(=O)Nc2ccc(Cl)cn2)NC1", "note": "[Example 25, (2R,5S)-5-[2-(4-chloro-3-fluorophenoxy)acetamido]-N-(5-chloropyridin-2-yl)piperidine-2-carboxamide]", "IC50": "500 to 2000"}, {"compound": "Cc1cc(C)cc(NC(=O)[C@H]2CC[C@H](NC(=O)COc3ccc(Cl)c(F)c3)CN2)c1", "note": "[Example 28, (2R,5S)-5-[2-(4-chloro-3-fluorophenoxy)acetamido]-N-(3,5-dimethylphenyl)piperidine-2-carboxamide]", "IC50": "2000 to 15000"}, {"compound": "O=C(COc1ccc(Cl)c(F)c1)N[C@H]1CC[C@H](C(=O)N2Cc3ccc(C(F)(F)F)cc3C2)NC1", "note": "[Example 40, 2-(4-chloro-3-fluorophenoxy)-N-[(3S,6R)-6-[5-(trifluoromethyl)-2,3-dihydro-1H-isoindole-2-carbonyl]piperidin-3-yl]acetamide]", "IC50": "1 to 500"}, {"compound": "COc1cc(Cl)ccc1NC(=O)[C@H]1CC[C@H](NC(=O)COc2ccc(Cl)c(F)c2)CN1", "note": "[Example 16, (2R,5S)-N-(4-chloro-2-methoxyphenyl)-5-[2-(4-chloro-3-fluorophenoxy)acetamido]piperidine-2-carboxamide]", "IC50": "2000 to 15000"}, {"compound": "O=C(COc1ccc(Cl)c(F)c1)N[C@H]1CC[C@H](C(=O)N[C@H]2CC[C@@H](OC(F)(F)F)CC2)NC1", "note": "[Example 15, (2R,5S)-5-[2-(4-chloro-3-fluorophenoxy)acetamido]-N-[(1s,4s)-4-(trifluoromethoxy)cyclohexyl]piperidine-2-carboxamide]", "IC50": "2000 to 15000"}, {"compound": "O=C(COc1ccc(Cl)c(F)c1)N[C@H]1CC[C@H](C(=O)Nc2cccc(OC(F)F)c2)NC1", "note": "[Example 30, (2R,5S)-5-[2-(4-chloro-3-fluorophenoxy)acetamido]-N-[3-(difluoromethoxy)phenyl]piperidine-2-carboxamide]", "IC50": "500 to 2000"}, {"compound": "O=C(COc1ccc(Cl)c(F)c1)N[C@H]1CC[C@H](C(=O)NCc2cc(C(F)(F)F)on2)NC1", "note": "[Example 43, (2R,5S)-5-[2-(4-chloro-3-fluorophenoxy)acetamido]-N-{[5-(trifluoromethyl)-1,2-oxazol-3-yl]methyl}piperidine-2-carboxamide]", "IC50": "500 to 2000"}, {"compound": "O=C(COc1ccc(Cl)c(F)c1)N[C@H]1CC[C@H](C(=O)Nc2ccc3c(c2)OC(F)(F)O3)NC1", "note": "[Example 39, (2R,5S)-5-[2-(4-chloro-3-fluorophenoxy)acetamido]-N-(2,2-difluoro-2H-1,3-benzodioxol-5-yl)piperidine-2-carboxamide]", "IC50": "1 to 500"}, {"compound": "O=C(COc1ccc(Cl)c(F)c1)N[C@H]1CC[C@H](C(=O)Nc2cccc(C(F)(F)F)c2)NC1", "note": "[Example 12, (2R,5S)-5-[2-(4-chloro-3-fluorophenoxy)acetamido]-N-[3-(trifluoromethyl)phenyl]piperidine-2-carboxamide]", "IC50": "1 to 500"}, {"compound": "COc1cccc(NC(=O)[C@H]2CC[C@H](NC(=O)COc3ccc(Cl)c(F)c3)CN2)c1", "note": "[Example 20, (2R,5S)-5-[2-(4-chloro-3-fluorophenoxy)acetamido]-N-(3-methoxyphenyl)piperidine-2-carboxamide]", "IC50": "2000 to 15000"}, {"compound": "O=C(COc1ccc(Cl)c(F)c1)N[C@H]1CC[C@H](C(=O)Nc2cccc(OC(F)(F)F)n2)NC1", "note": "[Example 37, (2R,5S)-5-[2-(4-chloro-3-fluorophenoxy)acetamido]-N-[6-(trifluoromethoxy)pyridin-2-yl]piperidine-2-carboxamide]", "IC50": "1 to 500"}, {"compound": "O=C(COc1ccc(Cl)c(F)c1)N[C@@H]1CC[C@@H](C(=O)Nc2cccc(C(F)(F)F)c2)NC1", "note": "[Example 31, (2S,5R)-5-[2-(4-chloro-3-fluorophenoxy)acetamido]-N-[3-(trifluoromethyl)phenyl]piperidine-2-carboxamide]", "IC50": "1 to 500"}, {"compound": "CN1C[C@@H](NC(=O)COc2ccc(Cl)c(F)c2)CC[C@@H]1C(=O)Nc1cncc(C(F)(F)F)n1", "note": "[Example 52, (2R,5S)-5-[2-(4-chloro-3-fluorophenoxy)acetamido]-1-methyl-N-[6-(trifluoromethyl)pyrazin-2-yl]piperidine-2-carboxamide]", "IC50": "1 to 500"}, {"compound": "O=C(COc1ccc(Cl)c(F)c1)N[C@H]1CC[C@H](C(=O)NCCCOC(F)(F)F)NC1", "note": "[Example 2, (2R,5S)-5-[2-(4-chloro-3-fluorophenoxy)acetamido]-N-[3-(trifluoromethoxy)propyl]piperidine-2-carboxamide hydrochloride]", "IC50": "2000 to 15000"}, {"compound": "O=C(COc1ccc(Cl)c(F)c1)N[C@H]1CC[C@H](C(=O)Nc2cccc(C(F)(F)F)c2F)NC1", "note": "[Example 36, (2R,5S)-5-[2-(4-chloro-3-fluorophenoxy)acetamido]-N-[2-fluoro-3-(trifluoromethyl)phenyl]piperidine-2-carboxamide]", "IC50": "1 to 500"}, {"compound": "O=C(COc1ccc(Cl)c(F)c1)N[C@H]1CC[C@H](C(=O)Nc2ccccc2)NC1", "note": "[Example 10, (2R,5S)-5-[2-(4-chloro-3-fluorophenoxy)acetamido]-N-phenylpiperidine-2-carboxamide]", "IC50": "2000 to 15000"}, {"compound": "O=C(COc1ccc(Cl)c(F)c1)N[C@H]1CC[C@H](C(=O)Nc2cccc(F)c2)NC1", "note": "[Example 23, (2R,5S)-5-[2-(4-chloro-3-fluorophenoxy)acetamido]-N-(3-fluorophenyl)piperidine-2-carboxamide]", "IC50": "500 to 2000"}, {"compound": "O=C(COc1ccc(Cl)c(F)c1)N[C@H]1CC[C@H](C(=O)NC2CCC(OC(F)(F)F)C2)NC1", "note": "(stereo partly drawn) [Example 47, (2R,5S)-5-[2-(4-chloro-3-fluorophenoxy)acetamido]-N-[3-(trifluoromethoxy)cyclopentyl]piperidine-2-carboxamide]", "IC50": "500 to 2000"}, {"compound": "O=C(COc1ccc(Cl)c(F)c1)N[C@H]1CC[C@H](C(=O)Nc2ccn(C3CC3(F)F)n2)NC1", "note": "(stereo partly drawn) [Example 46, (2R,5S)-5-[2-(4-chloro-3-fluorophenoxy)acetamido]-N-[1-(2,2-difluorocyclopropyl)-1H-pyrazol-3-yl]piperidine-2-carboxamide]", "IC50": "2000 to 15000"}, {"compound": "Cn1nc(CNC(=O)[C@H]2CC[C@H](NC(=O)COc3ccc(Cl)c(F)c3)CN2)cc1C(F)(F)F", "note": "[Example 42, (2R,5S)-5-[2-(4-chloro-3-fluorophenoxy)acetamido]-N-{[1-methyl-5-(trifluoromethyl)-1H-pyrazol-3-yl]methyl}piperidine-2-carboxamide]", "IC50": "1 to 500"}, {"compound": "O=C(COc1ccc(Cl)c(F)c1)N[C@H]1CC[C@H](C(=O)NCc2ccc(Cl)cn2)NC1", "note": "[Example 14, (2R,5S)-5-[2-(4-chloro-3-fluorophenoxy)acetamido]-N-[(5-chloropyridin-2-yl)methyl]piperidine-2-carboxamide]", "IC50": "2000 to 15000"}, {"compound": "O=C(COc1ccc(Cl)c(F)c1)N[C@H]1CC[C@H](C(=O)NCCCCC(F)(F)F)NC1", "note": "[Example 29, (2R,5S)-5-[2-(4-chloro-3-fluorophenoxy)acetamido]-N-(5,5,5-trifluoropentyl)piperidine-2-carboxamide]", "IC50": "2000 to 15000"}, {"compound": "O=C(COc1ccc(Cl)c(F)c1)N[C@H]1CC[C@H](C(=O)NCc2cc(C(F)(F)F)co2)NC1", "note": "[Example 18, (2R,5S)-5-[2-(4-chloro-3-fluorophenoxy)acetamido]-N-{[4-(trifluoromethyl)furan-2-yl]methyl}piperidine-2-carboxamide]", "IC50": "1 to 500"}, {"compound": "O=C(COc1ccc(Cl)c(F)c1)N[C@H]1CC[C@H](C(=O)N2Cc3ccc(OC(F)(F)F)cc3C2)NC1", "note": "[Example 41, 2-(4-chloro-3-fluorophenoxy)-N-[(3S,6R)-6-[5-(trifluoromethoxy)-2,3-dihydro-1H-isoindole-2-carbonyl]piperidin-3-yl]acetamide]", "IC50": "1 to 500"}]}]}
